The record followed here is patent publication US20150344485A1, “BICYCLIC PYRIMIDONE COMPOUNDS AS INHIBITORS OF LP-PLA2” (GLAXOSMITHKLINE INTELLECTUAL PROPERTY DEVELOPMENT LIMITED, priority 2013, published 2015).

For test [1], the system named is proinflammatory (M1) and anti-inflammatory (M2) markers. Briefly: Ex vivo analysis of M1 and M2 markers in macrophages of EAE rats by realtime PCR. The arrangement: species or system rat. As to conditions: splenic macrophages day 13 post MBP-immunization and CNS infiltrating macrophages. How it is done:
Ex vivo analysis of proinflammatory (M1) and anti-inflammatory (M2) markers in control and compound treated EAE rats. Splenic macrophages were harvested at day 13 post MBP-immunization and assayed for expression of a variety of markers by realtime PCR. CNS infiltrating cells were harvested and macrophages were analyzed for expression of M1 and M2 markers by realtime PCR.

The test system of test [2] is experimental autoimmune encephalomyelitis (EAE). Briefly: Rat experimental autoimmune encephalomyelitis (EAE) model, preventive treatment. Type of test: in vivo. How it is done:
A further study was carried out to study the impact of Lp-PLA2 inhibitors on modulating M1/M2 imbalance. In this study, rats were induced to develop experimental autoimmune encephalomyelitis (EAE) by immunization with myelin basic protein (MBP) antigen and treated with a known Lp-PLA2 inhibitor: 5-((9-Methoxy-4-oxo-6,7-dihydro-4H-pyrimido[6,1-a]isoquinolin-2-yl)oxy)-2-(3-(trifluoromethyl)phenoxy)benzonitrile (See PCT application no. PCT/CN2011/001597). In this preventive treatment model, the compound was administered at day 0 (day of immunization) and continued to administer until day 22. The study lasted for 25 days. Rats were subsequently monitored for symptoms of EAE. Rats were immunized with MBP to develop EAE and symptoms were monitored daily. Plasma Lp-PLA2 activity, OxLDL, and LysoPC concentration were determined at different time points through the course of EAE.

For test [3], the target named is T1, Lp-PLA2 in human plasma (Homo sapiens, UniProt Q13093).
T1 construct: from tissue; host or cells: pooled human plasma
T1 sequence (Q13093 22-441): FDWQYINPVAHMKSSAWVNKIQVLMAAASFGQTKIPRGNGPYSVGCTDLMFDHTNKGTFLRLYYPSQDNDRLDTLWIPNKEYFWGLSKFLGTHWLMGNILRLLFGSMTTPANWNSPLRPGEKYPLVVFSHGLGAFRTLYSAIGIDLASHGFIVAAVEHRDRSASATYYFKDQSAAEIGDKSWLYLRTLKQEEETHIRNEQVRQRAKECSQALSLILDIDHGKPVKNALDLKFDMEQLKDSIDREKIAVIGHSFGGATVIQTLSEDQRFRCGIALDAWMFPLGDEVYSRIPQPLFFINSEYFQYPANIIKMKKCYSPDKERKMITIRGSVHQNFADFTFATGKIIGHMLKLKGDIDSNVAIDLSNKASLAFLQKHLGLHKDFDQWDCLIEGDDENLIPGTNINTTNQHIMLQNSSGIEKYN
In words: Lp-PLA2 human plasma assay (Thio-PAF assay). In kind it is biochemical. To be noted: pooled human plasma; read-out: pIC50 values in the thio-PAF assay (converted). In a few lines: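 Pooled human plasma preincubated 30 min with compound, then 2-thio-PAF substrate added with CPM and NEM in 50 mM HEPES pH 7.4, 150 mM NaCl, 1 mM CHAPS. Quenched with TFA after 2 min, incubated 40 min at room temperature, and read by fluorescence at ex 380/em 485 nm. Values given as pIC50.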

For test [4], the target named is T2, recombinant human Lp-PLA2 (Homo sapiens, UniProt Q13093).
T2 sequence (Q13093 22-441): T1 sequence (Q13093 22-441)
In words: Recombinant human Lp-PLA2 assay (rhLp-PLA2, PED6 assay). In kind it is biochemical. In a few lines: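 Enzyme (4 nM or 110 pM, as stated for the 5 μL addition) preincubated 30 min with compound in 50 mM HEPES pH 7.4, 150 mM NaCl, 1 mM CHAPS, then PED6 substrate (4 or 5 μM in the addition) added. Fluorescence (ex 480/em 540) read after 20 min, room temperature; pIC50 from curve fitting.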

[5] abbreviates: read-out: pIC50 values in the recombinant human Lp-PLA2 assay (converted).
Where [6] appears, read: read-out: rhLp-PLA2 (PED6 assay) (pIC50) (converted).

Structures are written as SMILES. Where two headings read alike, the source gives them in different places. Where only a bound is given, the exact number is not on record here.

In the case of `COc1ccc2c(c1)CCn1c-2cc(Oc2ccc(Oc3cccc(C(F)(F)F)c3)c(C#N)c2)nc1=O` [5-((9-Methoxy-4-oxo-6,7-dihydro-4H-pyrimido[6,1-a]isoquinolin-2-yl)oxy)-2-(3-(trifluoromethyl)phenoxy)benzonitrile], in test [1], the M1 markers entry is reported as “decrease” and the M2 markers result was “increase”. In addition, in test [2] (rat EAE plasma), the “Lp-PLA2 activity in rat EAE plasma” value is recorded as “decreased” and the “LysoPC levels in rat EAE plasma” value is “decreased”. Moreover, the clinical disease result in test [2] (rat EAE, administered day 0 until day 22) is “reduction in clinical disease”.

Turning to `C[C@H]1CCn2c(cc(OCc3ccc(Oc4ccc(F)cc4)c(C#N)c3)nc2=O)N1C` [E126, (S)-5-(((1,2-dimethyl-6-oxo-2,3,4,6-tetrahydro-1H-pyrimido[1,6-a]pyrimidin-8-yl)oxy)methyl)-2-(4-fluorophenoxyl)benzonitrile], the IC50 in test [3] was at most 100 nM; in test [4] (setting [5]), at most 1 nM.

Consider `CN1c2cc(OCc3cccc(C#N)c3)nc(=O)n2CCC1(C)C` [E133, 3-(((1,2,2-trimethyl-6-oxo-2,3,4,6-tetrahydro-1H-pyrimido[1,6-a]pyrimidin-8-yl)oxy)methyl)benzonitrile], for which the IC50 in test [3] is at most 10 nM; in test [4] (setting [5]) it was at most 1 nM.

`CN1c2cc(OCc3ccc(F)cc3)nc(=O)n2CCC1(C)C` [E135, 8-((4-fluorobenzyl)oxy)-1,2,2-trimethyl-3,4-dihydro-1H-pyrimido[1,6-a]pyrimidin-6(2H)-one]: the IC50 is at most 10 nM in test [3] and at most 1 nM in test [4] (setting [5]).

Regarding `CC(C)N1c2cc(OCc3cc(F)c(F)c(F)c3)nc(=O)n2CC[C@@H]1C` [E140, (S)-1-isopropyl-2-methyl-8-((3,4,5-trifluorobenzyl)oxy)-3,4-dihydro-1H-pyrimido[1,6-a]pyrimidin-6(2H)-one], the figures for the IC50 in test [3] and in test [4] (setting [5]) were at most 100 nM and at most 1 nM, respectively.

Turning to `C[C@H]1CCn2c(cc(OCc3ccc(Oc4ccc(C(F)(F)F)nc4)c(F)c3)nc2=O)N1C` [E142, (S)-8-((3-fluoro-4-((6-(trifluoromethyl)pyridin-3-yl)oxy)benzyl)oxy)-1,2-dimethyl-3,4-dihydro-1H-pyrimido[1,6-a]pyrimidin-6(2H)-one], the IC50 was at most 10 nM in test [3] and at most 1 nM in test [4] (setting [5]).

On to `C[C@@H]1CCn2c(cc(OCc3ccc(Oc4ccc(Cl)c(C(F)(F)F)c4)c(F)c3)nc2=O)N1C` [E143], for which the IC50 in test [3] was at most 10 nM; in test [4] (setting [5]) it was at most 1 nM.

For the compound `C[C@@H]1CCn2c(cc(OCc3cc(F)c(Oc4ccnc(C(F)(F)F)c4)c(F)c3)nc2=O)N1C` [E144, (R)-8-((3,5-difluoro-4-((2-(trifluoromethyl)pyridin-4-yl)oxy)benzyl)oxy)-1,2-dimethyl-3,4-dihydro-1H-pyrimido[1,6-a]pyrimidin-6(2H)-one], the IC50 is at most 10 nM in test [3], at most 1 nM in test [4] (setting [5]) and 0.0251 nM in test [4] (setting [6]).

Consider `C[C@@H]1CCn2c(cc(OCc3ccc(Oc4ccc(C(F)(F)F)nc4)c(F)c3)nc2=O)N1C` [E145, (R)-8-((3-fluoro-4-((6-(trifluoromethyl)pyridin-3-yl)oxy)benzyl)oxy)-1,2-dimethyl-3,4-dihydro-1H-pyrimido[1,6-a]pyrimidin-6(2H)-one], for which the figures for the IC50 in test [3] and in test [4] (setting [5]) were at most 10 nM and at most 1 nM, respectively.

For `C[C@H]1CCn2c(cc(OCc3cc(F)c(Oc4ccnc(C(F)(F)F)c4)c(F)c3)nc2=O)N1C` [E146, (S)-8-((3,5-difluoro-4-((2-(trifluoromethyl)pyridin-4-yl)oxy)benzyl)oxy)-1,2-dimethyl-3,4-dihydro-1H-pyrimido[1,6-a]pyrimidin-6(2H)-one], the IC50 in test [3] was at most 10 nM; in test [4] (setting [5]), at most 1 nM; in test [4] (setting [6]), 0.0158 nM.

Regarding `C[C@@H]1CCn2c(cc(OCc3ccc(Oc4ccnc(C(F)(F)F)c4)c(F)c3)nc2=O)N1C` [E147, (R)-8-((3-fluoro-4-((2-(trifluoromethyl)pyridin-4-yl)oxy)benzyl)oxy)-1,2-dimethyl-3,4-dihydro-1H-pyrimido[1,6-a]pyrimidin-6(2H)-one], the results for the IC50 in test [3] and in test [4] (setting [5]) were at most 10 nM and at most 1 nM, respectively.

`C[C@@H]1CCn2c(cc(OCc3cc(F)c(Oc4cncc(C(F)(F)F)c4)c(F)c3)nc2=O)N1C` [E148, (R)-8-((3,5-difluoro-4-((5-(trifluoromethyl)pyridin-3-yl)oxy)benzyl)oxy)-1,2-dimethyl-3,4-dihydro-1H-pyrimido[1,6-a]pyrimidin-6(2H)-one]: the IC50 was at most 10 nM in test [3] and at most 1 nM in test [4] (setting [5]).

Consider `C[C@@H]1CCn2c(cc(OCc3ccc(Oc4cncc(C(F)(F)F)c4)c(F)c3)nc2=O)N1C` [E149, (R)-8-((3-fluoro-4-((5-(trifluoromethyl)pyridin-3-yl)oxy)benzyl)oxy)-1,2-dimethyl-3,4-dihydro-1H-pyrimido[1,6-a]pyrimidin-6(2H)-one], for which the IC50 was at most 10 nM in test [3] and at most 1 nM in test [4] (setting [5]).

For `C[C@H]1CCn2c(cc(OCc3cc(F)c(Oc4cncc(C(F)(F)F)c4)c(F)c3)nc2=O)N1C` [E150, (S)-8-((3,5-difluoro-4-((5-(trifluoromethyl)pyridin-3-yl)oxy)benzyl)oxy)-1,2-dimethyl-3,4-dihydro-1H-pyrimido[1,6-a]pyrimidin-6(2H)-one], the IC50 in test [3] was at most 10 nM; in test [4] (setting [5]) it was at most 1 nM.

Regarding `C[C@H]1CCn2c(cc(OCc3ccc(Oc4ccnc(C(F)(F)F)c4)c(F)c3)nc2=O)N1C` [E151, (S)-8-((3-fluoro-4-((2-(trifluoromethyl)pyridin-4-yl)oxy)benzyl)oxy)-1,2-dimethyl-3,4-dihydro-1H-pyrimido[1,6-a]pyrimidin-6(2H)-one], the IC50 in test [3] was at most 10 nM; in test [4] (setting [5]), at most 1 nM.

Take `CN1c2cc(OCc3cc(F)c(Oc4ccnc(C(F)(F)F)c4)c(F)c3)nc(=O)n2CCC1(C)C` [E153]: the IC50 is at most 10 nM in test [3] and at most 1 nM in test [4] (setting [5]).
